Data on 34 molecules can be found in patent US7759373B2, “Large conductance calcium-activated K channel opener” (Mitsubishi Tanabe Pharma Corporation, priority 2001, dated 2010).

By EC50 is commonly meant the concentration giving half of the maximal effect.

In experiment [1] the test system is isolated rabbit urinary bladder. The experiment in a line: Relaxation effect on potassium-induced contraction of isolated rabbit urinary bladder. The experiment is classed as cell-based. Conditions: Oryctolagus cuniculus; 50% relaxation concentration; high-K+ (30 mM) pre-contracted rabbit bladder strips; relaxation as percentage of the maximum produced by 0.1 mM papaverine; read-out: EC50 value range. In outline:
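Mucosa-free longitudinal bladder strips from male NZW rabbits, held at 37 °C in Krebs solution gassed with 95% O2/5% CO2, were precontracted with 30 mM K+. Compounds were added cumulatively (10^−8–10^−4 M), with isometric relaxation expressed relative to 0.1 mM papaverine maximum. EC50 was derived and reported as rank ranges.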

Experiment [2] concerns rhythmic bladder contractions induced by substance P. The experiment is described as follows: Inhibitory effect on the rhythmic bladder contractions induced by substance P in anesthetized rats. The experiment is classed as in vivo, rat. The note with it: time during which frequency of rhythmic contraction was completely inhibited, 0.25 mg/kg of the compound, substance P infusion. The gist of the method:
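Urethane-anesthetized female Sprague-Dawley rats with rhythmic bladder contractions driven by i.v. substance P (0.33 μg/kg/min). Compound given i.v. in saline/0.5% Tween 80 once contractions stable 15 min; intravesical pressure monitored, duration of 100% inhibition ranked A ≥20, B ≥10, C <10 min.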

For `Cc1nc2cc(-c3nc(CC(=O)O)c(-c4ccc(Cl)s4)o3)ccc2s1` [Preparation Example 459], in experiment [1], the EC50 lay within 1 to 3 µM. For the same molecule, in experiment [2], the “100% inhibition time range” value is reported as “C (A≧20>B≧10>C (minute))”.
Taken in the same sequence, the figures for `O=C(O)Cc1nc(-c2cc3ccccc3s2)oc1-c1ccc(Cl)cc1` [Preparation Example 454] were 1 to 3 µM and “A (A≧20>B≧10>C (minute))”.
Taken in the same sequence, the figures for `COc1ccc(-c2nc(CC(=O)O)c(-c3ccc(F)c(F)c3)o2)cc1` [Preparation Example 246] were 0.5 to 1 µM and “B (A≧20>B≧10>C (minute))”.
For the molecule `CCCc1nc(-c2ccc(F)cc2)[nH]c1-c1ccccc1` [Preparation example 88], the EC50 in experiment [1] was 1 to 3 µM. In addition, the “100% inhibition time range” value in experiment [2] was “B (A≧20>B≧10>C (minute))”.
Taken in the same sequence, the figures for `CCCc1nc(-c2ccc(F)cc2)[nH]c1-c1ccc(F)cc1` [Preparation example 87] were 1 to 3 µM and “B (A≧20>B≧10>C (minute))”.
As for `CSCc1nc(-c2ccc(C#N)cc2)[nH]c1-c1ccccc1` [Preparation example 132], in experiment [1], the EC50 was in the range of 0.5 to 1 µM. Further, the “100% inhibition time range” value in experiment [2] is recorded as “B (A≧20>B≧10>C (minute))”.
For `O=C(O)Cc1nc(-c2ccc3c(c2)OCCO3)oc1-c1ccc(Cl)s1` [Preparation Example 283], the concentration giving a half-maximal response (EC50) in experiment [1] was at most 0.5 µM. Also, the “100% inhibition time range” value in experiment [2] is “C (A≧20>B≧10>C (minute))”.
For the molecule `CSc1ccc(-c2nc(CC(=O)[O-])c(-c3cccs3)o2)cn1.[Na+]` [Preparation Example 366, 2-(6-methylthiopyridin-3-yl)-5-(2-thienyl)oxazol-4-yl acetic acid sodium salt], the EC50 in experiment [1] was at most 0.5 µM. For the same molecule, the “100% inhibition time range” value in experiment [2] was “C (A≧20>B≧10>C (minute))”.
For `O=C(O)Cc1nc(-c2ccc(F)cc2)oc1-c1csc2ccccc12` [Preparation Example 158], in experiment [1], the half-maximal effective concentration (EC50) lay in the range of 1 to 3 µM. Further, the “100% inhibition time range” value in experiment [2] is “C (A≧20>B≧10>C (minute))”.
Consider `O=C(O)Cc1nc(-c2ccccc2O)oc1-c1cccs1` [Preparation Example 277], for which the EC50 in experiment [1] was in the range of 0.5 to 1 µM. For the same molecule, in experiment [2], the “100% inhibition time range” value was “C (A≧20>B≧10>C (minute))”.
Turning to `Clc1ccc(-c2ncc(-c3cccnc3)[nH]2)s1` [Preparation example 25], the EC50 in experiment [1] is at most 0.5 µM. For the same molecule, in experiment [2], the “100% inhibition time range” value was “B (A≧20>B≧10>C (minute))”.
Take `O=C(O)Cc1nc(-c2cc3c(s2)CCC3)oc1-c1ccc(Cl)s1` [Preparation Example 479]: in experiment [1], the EC50 was at most 0.5 µM. In addition, the “100% inhibition time range” value in experiment [2] is “C (A≧20>B≧10>C (minute))”.
The matching figures for `CSc1ccc(-c2nc(-c3ccc(Cl)s3)c(CC(=O)O)s2)cc1` [Preparation Example 590]: at most 0.5 µM and “B (A≧20>B≧10>C (minute))”.
Taken in the same sequence, the figures for `CSc1ncc(-c2nc(CC(=O)O)c(-c3ccc(Cl)s3)o2)cn1` [Preparation Example 445] were 1 to 3 µM and “A (A≧20>B≧10>C (minute))”.
Turning to `O=C(O)Cc1nc(-c2ccc(F)cc2)oc1-c1ccc[nH]1` [Preparation Example 524], the EC50 in experiment [1] was 1 to 3 µM. The “100% inhibition time range” value in experiment [2] is listed as “B (A≧20>B≧10>C (minute))”.
As to `O=C(O)Cc1nc(-c2cc3ccc(F)cc3s2)oc1-c1ccc(Cl)s1` [Preparation Example 451], in experiment [1], the EC50 was 1 to 3 µM. Moreover, the “100% inhibition time range” value in experiment [2] is recorded as “B (A≧20>B≧10>C (minute))”.
Take `CCCc1nc(-c2ccc(F)cc2)[nH]c1-c1cccc(F)c1` [Preparation example 99]: in experiment [1], the EC50 was 0.5 to 1 µM. For the same molecule, the “100% inhibition time range” value in experiment [2] was “B (A≧20>B≧10>C (minute))”.
In the case of `O=C(O)Cc1nc(-c2nc3ccccc3s2)oc1-c1ccc(Cl)s1` [Preparation Example 446], in experiment [1], the 50% effective concentration (EC50) is at most 0.5 µM. In addition, the “100% inhibition time range” value in experiment [2] is listed as “C (A≧20>B≧10>C (minute))”.
As to `CCOc1ccc(-c2nc(CC(=O)[O-])c(-c3ccc(Cl)s3)o2)cn1.[Na+]` [Preparation Example 367, 2-(6-ethoxypyridin-3-yl)-5-(5-chlorothiophen-2-yl)oxazol-4-yl acetic acid sodium salt], the EC50 in experiment [1] lay within 0.5 to 1 µM. Besides, in experiment [2], the “100% inhibition time range” value is reported as “A (A≧20>B≧10>C (minute))”.
The matching figures for `CSc1ncc(-c2nc(-c3ccc(Cl)s3)c(CC(=O)O)s2)cn1` [Preparation Example 572]: 1 to 3 µM and “C (A≧20>B≧10>C (minute))”.
The matching figures for `CN(c1ccc(-c2nc(CC(=O)O)c(-c3ccc(Cl)s3)o2)cn1)C1CC1` [Preparation Example 531]: 1 to 3 µM and “C (A≧20>B≧10>C (minute))”.
The matching figures for `O=C(O)Cc1nc(-c2ccc3occc3c2)oc1-c1cc(Cl)cs1` [Preparation Example 288]: at most 0.5 µM and “C (A≧20>B≧10>C (minute))”.
Consider `Cc1csc(-c2nc(CC(=O)O)c(-c3ccc(Cl)s3)o2)c1` [Preparation Example 478], for which the EC50 in experiment [1] is at most 0.5 µM. For the same molecule, the “100% inhibition time range” value in experiment [2] is reported as “B (A≧20>B≧10>C (minute))”.
Take `COc1ccc(-c2nc(-c3ccc(Cl)cc3)c(CC(=O)O)o2)cc1` [Preparation Example 517]: in experiment [1], the EC50 was at most 0.5 µM. Further, the “100% inhibition time range” value in experiment [2] was “C (A≧20>B≧10>C (minute))”.
Taken in the same sequence, the figures for `CCc1nc(-c2ccc(F)cc2)[nH]c1-c1ccsc1` [Preparation Example 171] were 1 to 3 µM and “B (A≧20>B≧10>C (minute))”.
Regarding `CN(C)c1ncc(-c2nc(CC(=O)O)c(-c3ccc(Cl)c(S)c3)o2)cn1` [Preparation Example 364], the EC50 in experiment [1] fell in the range of 1 to 3 µM. The “100% inhibition time range” value in experiment [2] is on record as “B (A≧20>B≧10>C (minute))”.
For `CSc1ccc(-c2nc(CC(=O)[O-])c(-c3ccsc3)o2)cn1.[Na+]` [Preparation Example 365, 2-(6-methylthiopyridin-3-yl)-5-(3-thienyl)oxazol-4-yl acetic acid sodium salt], the EC50 in experiment [1] was in the range of 1 to 3 µM. Also, the “100% inhibition time range” value in experiment [2] is “B (A≧20>B≧10>C (minute))”.
As for `CCCc1nc(-c2csc(Cl)c2)[nH]c1-c1ccccc1` [Preparation example 34], the EC50 in experiment [1] was 1 to 3 µM. Further, the “100% inhibition time range” value in experiment [2] was “A (A≧20>B≧10>C (minute))”.
As to `CN(C)c1ccc(-c2nc(-c3ccc(Cl)cc3)c(CC(=O)O)s2)cn1` [Preparation Example 576], the EC50 in experiment [1] lay within 0.5 to 1 µM. Besides, the “100% inhibition time range” value in experiment [2] is recorded as “A (A≧20>B≧10>C (minute))”.
Regarding `O=C(O)Cc1nc(-c2cc3ccccc3s2)oc1-c1ccc(Cl)s1` [Preparation Example 271], in experiment [1], the EC50 lay within 0.5 to 1 µM. Further, the “100% inhibition time range” value in experiment [2] is listed as “C (A≧20>B≧10>C (minute))”.
The matching figures for `CCNC(=O)Cc1nc(-c2ccc(F)cc2)oc1-c1ccsc1` [Preparation Example 616]: 1 to 3 µM and “B (A≧20>B≧10>C (minute))”.
Taken in the same sequence, the figures for `O=C(O)Cc1oc(-c2cc3ccccc3s2)nc1-c1ccc(Cl)s1` [Preparation Example 503] were 1 to 3 µM and “A (A≧20>B≧10>C (minute))”.
As to `O=C(O)Cc1nc(-c2ccc3ccccc3n2)oc1-c1ccc(Cl)s1` [Preparation Example 434], in experiment [1], the EC50 is 0.5 to 1 µM. The “100% inhibition time range” value in experiment [2] is on record as “B (A≧20>B≧10>C (minute))”.
Taken in the same sequence, the figures for `O=C(O)Cc1nc(-c2cnc3occc3c2)oc1-c1ccc(Cl)s1` [Preparation Example 444] were 1 to 3 µM and “B (A≧20>B≧10>C (minute))”.
